In brackets after ≈: the same amount, converted by molar mass. Where a name gives a salt, the structure may show the parent alone. Read-outs that look alike come from different tables or passages of the source.
Experiments:
Format in all cases: cell-based
E. coli 257 = assay: In vitro antibacterial activity (MIC, Mueller-Hinton broth)
Method: Drug dilutions are prepared in Mueller-Hinton broth ranging from 128 to 0.008 μg/ml. The diluted agents are dispensed in 100 μl amounts into the wells of a 96-well tray and used immediately or frozen at -10° to -70° C. until needed. Using an automated inoculator, 1.5 μl of a 10^-2 dilution of an overnight culture is added to each well of the tray. The tops of the trays are then sealed using transparent tape and incubated overnight at 37° C. The trays are examined with the aid of a viewer. The lowest concentration at which no growth is observed is considered to be the minimum inhibitory concentration (MIC).

P. aeruginosa Stone 130 = assay: In vitro antibacterial activity (MIC); conditions: Pseudomonas aeruginosa, STONE130, read-out: MIC
Method in brief: (§1)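 Twofold-style dilution series (128 to 0.008 μg/ml) made in Mueller-Hinton broth, dispensed, then inoculated with 1.5 μl of a 10^-2 overnight-culture dilution. Plates sealed, held overnight at 37° C, inspected with a viewer.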

P. mirabilis 2 = assay: In vitro antibacterial activity (MIC)
Method in brief: as §1

P. aeruginosa POW 151 = assay: In vitro antibacterial activity (MIC); conditions: Pseudomonas aeruginosa, POW151
Method in brief: as §1

E. aerogenes 8 = assay: In vitro antibacterial activity (MIC); conditions: Klebsiella aerogenes; E. aerogenes 8; read-out: MIC
Method in brief: as §1

S. aureus 1059B = assay: In vitro antibacterial activity (MIC); conditions: Staphylococcus aureus, read-out: MIC
Method in brief: as §1

P. aeruginosa 5712 = assay: In vitro antibacterial activity (MIC); conditions: Pseudomonas aeruginosa; P. aeruginosa 5712; read-out: MIC
Method in brief: as §1

P. vulgaris ATCC 6380 = assay: In vitro antibacterial activity (MIC); conditions: Proteus vulgaris
Method in brief: as §1

P. aeruginosa B = assay: In vitro antibacterial activity (MIC); conditions: Pseudomonas aeruginosa, read-out: MIC
Method in brief: as §1

K. pneumoniae A = assay: In vitro antibacterial activity (MIC); conditions: Klebsiella pneumoniae
Method in brief: as §1

P. rettgeri ATCC 9250 = assay: In vitro antibacterial activity (MIC); conditions: Providencia rettgeri, ATCC9250, P. rettgeri ATCC 9250; read-out: MIC
Method in brief: as §1

S. marcescens 5805 = assay: In vitro antibacterial activity (MIC); conditions: Serratia marcescens, 5805, S. marcescens 5805; read-out: MIC
Method in brief: as §1

E. cloacae 6951 = assay: In vitro antibacterial activity (MIC); conditions: Enterobacter cloacae, 6951, E. cloacae 6951; read-out: MIC
Method in brief: as §1

S. aureus Smith = assay: In vitro antibacterial activity (MIC); conditions: Staphylococcus aureus, S. aureus Smith; read-out: MIC
Method in brief: as §1

K. pneumoniae HE7 = assay: In vitro antibacterial activity (MIC); conditions: Klebsiella pneumoniae; K. pneumoniae HE7; read-out: MIC
Method in brief: as §1

P. aeruginosa 503-56 = assay: In vitro antibacterial activity (MIC)
Method in brief: as §1

P. mirabilis 503-1136 = assay: In vitro antibacterial activity (MIC); conditions: Proteus mirabilis, 5031136, P. mirabilis 503-1136; read-out: MIC
Method in brief: as §1

S. marcescens SM = assay: In vitro antibacterial activity (MIC); conditions: Serratia marcescens, read-out: MIC
Method in brief: as §1

S. typhi P58A = assay: In vitro antibacterial activity (MIC); conditions: Salmonella enterica, TYPHI
Method in brief: as §1

K. pneumoniae 8357 = assay: In vitro antibacterial activity (MIC)
Method in brief: as §1

E. cloacae 24 = assay: In vitro antibacterial activity (MIC); conditions: Enterobacter cloacae, 24, E. cloacae 24; read-out: MIC
Method in brief: as §1

K. pneumoniae 503-994 = assay: In vitro antibacterial activity (MIC); conditions: Klebsiella pneumoniae, 503994, K. pneumoniae 503-994; read-out: MIC
Method in brief: as §1

[1] = Escherichia coli, 257, E. coli 257, read-out: MIC
[2] = Proteus mirabilis, 2, P. mirabilis 2, read-out: MIC
[3] = ATCC6380, P. vulgaris ATCC 6380, read-out: MIC
[4] = Pseudomonas aeruginosa, 50356, P. aeruginosa 503-56, read-out: MIC
[5] = Klebsiella pneumoniae, 8357, K. pneumoniae 8357, read-out: MIC

Compound | MIC (P. aeruginosa Stone 130) [µg/mL] | MIC (P. mirabilis 2; [2]) [µg/mL] | MIC (P. aeruginosa POW 151) [µg/mL] | MIC (E. aerogenes 8) [µg/mL] | MIC (S. aureus 1059B) [µg/mL] | MIC (P. aeruginosa 5712) [µg/mL] | MIC (P. vulgaris ATCC 6380; [3]) [µg/mL] | MIC (P. aeruginosa B) [µg/mL] | MIC (K. pneumoniae A; K. pneumoniae A, read-out: MIC) [µg/mL] | MIC (P. rettgeri ATCC 9250) [µg/mL] | MIC (S. marcescens 5805) [µg/mL] | MIC (E. cloacae 6951) [µg/mL] | MIC (S. aureus Smith) [µg/mL] | MIC (K. pneumoniae HE7) [µg/mL] | MIC (P. aeruginosa 503-56; [4]) [µg/mL] | MIC (P. mirabilis 503-1136) [µg/mL] | MIC (S. marcescens SM) [µg/mL] | MIC (S. typhi P58A) [µg/mL] | MIC (E. cloacae 24) [µg/mL] | MIC (K. pneumoniae 503-994) [µg/mL] | other results
CC1(C)S[C@@H]2[C@H](N=CN3CCC(CCCn4ccnc4)CC3)C(=O)N2[C@H]1C(=O)O [C, [2S-(2alpha,5alpha,6beta)]-6-[[4-[3-(1H-imidazol-1-yl)propyl]-1-piperidinyl]methylene]amino]-3,3-dimethyl-7-oxo-4-thia-1-azabicyclo[3.2.0]heptane-2-carboxylic acid 1.2 mole hydrochloride monohydrate] | > 128 | 16 | > 128 | > 128 | > 128 | > 128 | 4 | 8 | 4 | 16 | 32 | > 128 | > 128 | > 128 | > 128 | 128 | 8 | 8 | 32 | 32 | MIC (E. coli 257; [1]): 2 µg/mL; MIC (K. pneumoniae 8357; [5]): 16 µg/mL
CC1(C)S[C@@H]2[C@H](N=CN3CCC(Cn4ccnc4)CC3)C(=O)N2[C@H]1C(=O)O [Compound A] | > 128 | 0.5 (≈ 1.28 µM) | > 128 | 32 (≈ 81.7 µM) | 32 (≈ 81.7 µM) | > 128 |  | 0.25 (≈ 0.639 µM) | < 0.008 | 0.5 (≈ 1.28 µM) | 1 (≈ 2.55 µM) | 4 (≈ 10.2 µM) | 8 (≈ 20.4 µM) | > 128 | > 128 | 8 (≈ 20.4 µM) | 0.25 (≈ 0.639 µM) | 0.25 (≈ 0.639 µM) | 0.5 (≈ 1.28 µM) | 0.25 (≈ 0.639 µM) | MIC (E. coli 257; Escherichia coli, 257): 0.125 µg/mL (≈ 0.319 µM); MIC (P. vulgaris ATCC 6380; ATCC6380): 0.125 µg/mL (≈ 0.319 µM); MIC (K. pneumoniae 8357; [5]): 0.25 µg/mL (≈ 0.639 µM)
Cc1nc(C)n(CCCC2CCN(C=N[C@@H]3C(=O)N4[C@@H]3SC(C)(C)[C@@H]4C(=O)O)CC2)c1C [E, [2S-(2alpha,5alpha,6beta)]-6[[4-[3-[(2,4,5-trimethyl-1H-imidazol-1-yl)propyl]-1-piperidinyl]methylene]amino]-3,3-dimethyl-7-oxo-4-thia-1-azabicyclo[3.2.0]heptane-2-carboxylic acid hydrate hydrochloride] | > 128 | 0.5 | > 128 | 32 | 64 | > 128 | 0.062 | > 128 | 0.062 | 0.5 | 0.5 | 8 | 8 | > 128 | > 128 | 4 | 0.125 | 0.062 | 0.5 | 0.062 | MIC (E. coli 257; [1]): 0.062 µg/mL; MIC (K. pneumoniae 8357; [5]): 0.062 µg/mL
Cc1nccn1CCCC1CCN(C=N[C@@H]2C(=O)N3[C@@H]2SC(C)(C)[C@@H]3C(=O)O)CC1 [F, [2S-(2alpha,5alpha,6beta)]-3,3-dimethyl-6-[[[4-[3-(2-methyl-1H-imidazol-1-yl)propyl]-1-piperidinyl]methylene]amino]-7-oxo-4-thia-1-azabicyclo[3.2.0]heptane-2-carboxylic acid 1.15 molar hydrochloride 1.75 molar hydrate] | > 128 |  | > 128 | 32 | 64 | > 128 | 0.25 | 0.25 | 0.031 | 0.25 | 0.5 | 8 | 8 | > 128 | > 128 | 8 | 0.125 | 0.062 | 0.25 | 2 | MIC (E. coli 257; [1]): 0.125 µg/mL; MIC (P. mirabilis 2; Proteus mirabilis, 2): 0.5 µg/mL; MIC (K. pneumoniae 8357; Klebsiella pneumoniae, 8357): 1 µg/mL
CCc1nc(C)cn1CCCC1CCN(C=N[C@@H]2C(=O)N3[C@@H]2SC(C)(C)[C@@H]3C(=O)O)CC1 [G, [2S-(2alpha,5alpha,6beta)]-6-[[[4-[3-(2-ethyl-4methyl-1H-imidazol-1-yl)propyl]piperidinyl]methylene]amino]-3,3-dimethyl-7-oxo-4-thia-1-azabicyclo[3.2.0]heptane-2-carboxylic acid hydrochloride] | > 128 | 1 | > 128 | 16 | 128 | > 128 | 0.25 | 0.25 |  | 1 | 4 | 16 | 8 | > 128 | > 128 | 16 | 1 | 0.25 | 0.5 | 0.25 | MIC (E. coli 257; Escherichia coli, 257): 0.25 µg/mL; MIC (K. pneumoniae A): 0.125 µg/mL; MIC (K. pneumoniae 8357; Klebsiella pneumoniae, 8357): 1 µg/mL
CC1(C)S[C@@H]2[C@H](N=CN3CCC(c4ncc[nH]4)CC3)C(=O)N2[C@H]1C(=O)O [O, [2S-(2alpha,5alpha,6beta)]-6-[[[4-(1H-imidazol-2-yl-1-piperidinyl]methylene]amino]-3,3-dimethyl-7-oxo-4-thia-1-azabicyclo[3.2.0]heptane-2-carboxylic acid hydrochloride trihydrate] | > 128 | 1 | > 128 | 32 | > 128 | > 128 | 0.25 | 0.5 | 0.062 | 0.5 | 8 | 16 |  | > 128 | 128 |  | 0.5 | 0.125 | 1 | 0.5 | MIC (E. coli 257; Escherichia coli, 257): 0.125 µg/mL; MIC (P. aeruginosa 503-56; P. aeruginosa 503-56, hydrochloride trihydrate): > 128 µg/mL; MIC (K. pneumoniae 8357; [5]): 0.5 µg/mL

Reference: patent publication US4605744A, “Imidazole derivatives” (Hoffmann-La Roche Inc., priority 1985, dated 1986)
